From patent publication US6465527B1, “Iodinated hydrocarbon pesticide” (priority 1999, dated 2002)
Read-outs that look alike come from different tables or passages of the source.

How the values were obtained:
Assay type in all cases: in vivo
Meloidogyne arenaria = assay: Greenhouse nematicide test, diiodinated C2-C8 hydrocarbons in infested field soil (Experiments 1 and 2); details: for M. arenaria J2 populations in preplant samples: rates ≧5.0 mg
Experimental: (§1) Additionally, the nematicidal properties of iodinated hydrocarbons were investigated in greenhouse experiments with field soil infested with Meloidogyne arenaria and Heterodera Glycines. Chemicals were added directly to infested solid at rates <100 mg/Kg soil. Treated soil was kept moist (approximately 60 percent field capacity) and uncovered for 7-10 days when samples were collected, and the pots were planted with ‘Brim’ soybean, Glycine max. […] 1,2-diiodoethane (C2), 1,3-diiodopropane (C3), 1,4-diiodobutane (C4), 1,5-diiodopentane (C5), 1,6-diiodohexane (C6), and […] were applied to soil rates of 2.5, 5.0, 7.5, and 10 mg/Kg soil. All rates of C2 and C8 were ineffective in reducing M. arenaria juvenile (J2) populations in preplant samples. This was also true for C2 and J2 populations of H. glycines; however, […] rates ≧5.0 mg suppressed J2 populations of H. glycines. […] H. glycines J2 numbers in final soil samples were generally inversely related to rates for C3-C8. […] Applications of C3-C6 to soil increased shoot weights in a manner directly related to dosages but only in a curvilinear pattern.
(§2) In this experiment, the nematicidal properties of various diiodinated hydrocarbons were compared. The nematicidal properties of diiodinated C2-C8 normal hydrocarbons was assessed in a greenhouse experiment with field soil infested with Meloidogyne arenaria [Ma] and Heterodera glycines [Hg]. 1,2-diiodoethane [C2], 1,3-diiodopropane [C3], 1,4-diiodobutane [C4], 1.5-diiodopentane [C5], 1,6-diiodohexane [C6] and 1,8-diiodooctane [C8] were applied to soil at rates of 2.5, 5.0, 7.5, and 10.0 mgs/kg soil. The potted soil was kept moist in a greenhouse for 10 days when preplant samples were collected for analysis, and the pots were planted with ‘Brim’ soybean [Glycine max]. After 7 weeks of growth, the plants were removed and final soil samples taken. Data was collected on weights of fresh roots and shoots, root galling by Ma, and numbers of nematodes in soil and roots. All rates of C2 and C8 were ineffective in reducing Ma juvenile [J2] populations in the preplant samples. This was also true for C2 and J2 populations of Hg; however, C8 rates ≧5.0 mg suppressed J2 populations of Hg. […] Hg J2 numbers in final soil samples were generally inversely related to rates for C3-C8. This pattern of suppression in J2 numbers was also applicable to Ma in the final soil samples but only for C3-C6. […] Applications of C3-C6 to soil increased shoot weights in a manner directly related to dosages but non-linear in pattern.

Heterodera glycines = assay: as above; details: rates ≧5.0 mg
Experimental: as §1, §2

[1] = system: German cockroach, Blattella germanica (L.); assay: Fumigant toxicity in sealed glass jar, German cockroach; details: 30-60 adult males; for mortality at 50 µL/jar: Blattella germanica, inhaled or nasal
Experimental: (§3) As shown below, Table 1 depicts the toxicity of both monoiodinated and diiodinated hydrocarbons to both the German and the American cockroach after 1 hour of exposure.
(§4) Shown in Table 2 is the toxicity of both monoiodinated and diiodinated hydrocarbons to the German and American cockroach and the Cowpea weevil after 24 hours of exposure.
(§5) In this experiment both the insecticidal and nematicidal properties of iodinated hydrocarbons were compared. In determining the insecticidal properties of the iodinated hydrocarbons, both American (Periplaneta americana) and German (Blattella germanica) cockroaches were used. Groups of cockroaches were confined in 0.95-liter glass jars with a small cotton ball. Exactly 50 μl of a test chemical was applied to the cotton ball and the jar was sealed. Knockdown, defined as the inability to walk in a coordinated manner, and mortality were assessed every 15 minutes for the first hour and hourly thereafter for 8 hours and again after 24 hours.

[2] = system: American cockroach, Periplaneta americana (L.); assay: Fumigant toxicity in sealed glass jar, American cockroach; details: 8-36 adult males; for mortality at 50 µL/jar: Periplaneta americana, inhaled or nasal
Experimental: as §3, §4, §5

[3] = system: Cowpea weevil, Callosobruchus maculatus (F.); assay: Fumigant toxicity, Cowpea weevil; design: concentration or dose not given beside the values; details: 30 adults
Experimental: as §4

[4] = system: American (Periplaneta americana) and German (Blattella germanica) cockroaches; assay: Knockdown and mortality of cockroaches in sealed jar (both species); details: for Sensitivity of American cockroaches compared with German cockroaches: in vivo; for Knockdown of cockroaches: within 1 hour after treatment, 50 μl on cotton ball in sealed 0.95-liter jar
Experimental: as §5, with “sealed.” for “sealed. Knockdown, defined as the inability to walk in a coordinated manner, and mortality were assessed every 15 minutes for the first hour and hourly thereafter for 8 hours and again after 24 hours.”

[5] = system: 'Brim' soybean [Glycine max]; assay: Soybean growth in treated soil (Experiments 1 and 2)
Experimental: as §1, §2

[6] = system: cyst [Heterodera glycines]; assay: Greenhouse nematicide test, iodinated C1-C3 hydrocarbons (Experiment 4); details: 10 days after application; all dosages (0.1, 0.2, 0.4 ml/kg soil)
Experimental: (§6) In this experiment, the nematicidal properties of low molecular weight iodinated hydrocarbons were investigated. The nematicidal properties of iodinated C1-C3 hydrocarbons were evaluated in greenhouse experiments with field soil infested with root-knot [Meloidogyne arenaria] and cyst [Heterodera glycines] nematodes. lodomethane, di-iodomethane, iodoethane, di-iodoethane, and 1-iodopropane were added to soil at rates of 0.1, 0.2 and 0.4 ml/kg soil.
(§7) The treated soil was kept moist for 10 days when soil samples were taken for nematode analysis and ‘Brim’ soybean [Glycine max] planted. Soybeans were allowed to grow for 8 weeks and then were removed from the soil to determine plant growth, root-knot indices and the number of galls generated by M arenaria. […] All compounds except 1-iodopropane increased fresh shoot weight when applied at ≧0.1 ml/kg soil.

[7] = system: root-knot [Meloidogyne arenaria]; assay: as above; details: for M. arenaria [J2] juvenile populations in soil: 10 days after application, all rates (0.1, 0.2, 0.4 ml/kg soil)
Experimental: as §6, §7

[8] = 1 h exposure, read-out: % Mortality after 1 h exposure, German cockroach
[9] = 24 h exposure, read-out: % Mortality after 24 h exposure, German cockroach
[10] = 1 h exposure, read-out: % Mortality after 1 h exposure, American cockroach
[11] = 24 h exposure, read-out: % Mortality after 24 h exposure, American cockroach

Structure (SMILES) | M. arenaria J2 populations in preplant samples (Meloidogyne arenaria) | H. glycines J2 populations in preplant samples (Heterodera glycines) | mortality at 50 µL/jar [1, 8] [%] | mortality at 50 µL/jar [1, 9] [%] | mortality at 50 µL/jar [2, 10] [%] | mortality at 50 µL/jar [2, 11] [%] | % Mortality after 24 h exposure, Cowpea weevil [3] [%] | Sensitivity of American cockroaches compared with German cockroaches [4] | H. glycines J2 populations in soil [6] | Knockdown of cockroaches [4] [%] | other results
ICCCCCI [1,5-diiodopentane] | virtually eliminated | virtually eliminated | 0 | 0 | 11 | 0 | 37 | more sensitive |  |  | 
ICCCCCCI [1,6-diodohexane, 1,6-diiodohexane] | virtually eliminated | virtually eliminated | 0 | 0 | 5 | 0 | 0 | more sensitive |  |  | 
ICCCCCCCCI [1,8-diiodooctane] |  | suppressed | 0 | 0 | 0 | 0 | 0 |  |  |  | M. arenaria juvenile (J2) populations in preplant samples (Meloidogyne arenaria; all rates (2.5, 5.0, 7.5, 10 mg/Kg soil)): ineffective; M. arenaria J2 numbers in final soil samples (Meloidogyne arenaria; final soil samples after soybean growth, rates 2.5-10 mg/kg soil): did not change significantly; Shoot weights of soybean ([5]; 2.5 mg rate): increased shoot weights slightly; Shoot weights of soybean ([5]; rates higher than 2.5 mg): no significant effect
CCCI [1-iodopropane] |  |  |  |  |  |  | 97 |  | ineffective | 100 | M. arenaria [J2] juvenile populations in soil ([7]; listed as 1 iodopropane): ineffective; M. arenaria [J2] juvenile populations in soil ([7]; listed as iodopropane): increased directly; Root galling (root knot) by M. arenaria ([7]; soybean after 8 weeks, rates 0.1-0.4 ml/kg soil): no significant effect; % Mortality after 1 h exposure, German cockroach ([1]; 1 h exposure): 100%; % Mortality after 24 h exposure, German cockroach ([1]; 24 h exposure): 100%; % Mortality after 1 h exposure, American cockroach ([2]; 1 h exposure): 100%; % Mortality after 24 h exposure, American cockroach ([2]; 24 h exposure): 100%
CCI [iodoethane] |  |  | 100 | 100 | 100 | 100 | 100 |  | ineffective | 100 | M. arenaria [J2] juvenile populations in soil [7]: ineffective; Gall formation by M. arenaria ([7]; applied at ≧0.2 ml/kg soil): Significant suppression
IC(I)=C(I)I [tetraiodoethylene] |  |  | 0 | 3 | 0 | 0 | 0 |  |  |  | 
